According to US7342029B2, “Substituted indoles” (Sanofi-Aventis Deutschland GmbH, priority 1999, dated 2008):
pIC50: −log10 of the molar value.

Assays:
[1] = test system: protein kinase C (PKC); test: PKC kinase inhibition (Upstate test kit); type: biochemical; conditions: substance concentration 100 μM; ATP 50 μM
Description: (§1) cAMP-dependent protein kinase (PKA), protein kinase C (PKC) and casein kinase II (CK II) were determined using the corresponding test kits of Upstate Biotechnologie according to the instructions of the manufacturer at an ATP concentration of 50 μM. However, instead of phosphocellulose filters, multi-screen plates (Millipore; Phosphocellulose MS-PH, cat. MAPHNOB10) with the corresponding aspiration system were used. The plates were then measured in a Wallac MicroBeta scintillation counter. In each case, 100 μM of test substance were used. Each substance was tested in duplicate. The mean of the blank (without enzyme) was subtracted from the means (enzyme with and without substances), and the inhibition in % was calculated. IC50 calculations were carried out using the software package GraFit 3.0.

[2] = biological target: T1, IκB kinase (Homo sapiens, UniProt O14920+O15111); test: IκB kinase ELISA; type: biochemical; conditions: kinase complex from HeLa S3 cell extract S100, activated with MEKK1Δ
T1 construct: endogenous in cells; host or cells: HeLa S3 cell extract S100 (ammonium sulfate cut, Superose-6 fractions at 670 kDa)
T1 sequence (O14920 whole entry): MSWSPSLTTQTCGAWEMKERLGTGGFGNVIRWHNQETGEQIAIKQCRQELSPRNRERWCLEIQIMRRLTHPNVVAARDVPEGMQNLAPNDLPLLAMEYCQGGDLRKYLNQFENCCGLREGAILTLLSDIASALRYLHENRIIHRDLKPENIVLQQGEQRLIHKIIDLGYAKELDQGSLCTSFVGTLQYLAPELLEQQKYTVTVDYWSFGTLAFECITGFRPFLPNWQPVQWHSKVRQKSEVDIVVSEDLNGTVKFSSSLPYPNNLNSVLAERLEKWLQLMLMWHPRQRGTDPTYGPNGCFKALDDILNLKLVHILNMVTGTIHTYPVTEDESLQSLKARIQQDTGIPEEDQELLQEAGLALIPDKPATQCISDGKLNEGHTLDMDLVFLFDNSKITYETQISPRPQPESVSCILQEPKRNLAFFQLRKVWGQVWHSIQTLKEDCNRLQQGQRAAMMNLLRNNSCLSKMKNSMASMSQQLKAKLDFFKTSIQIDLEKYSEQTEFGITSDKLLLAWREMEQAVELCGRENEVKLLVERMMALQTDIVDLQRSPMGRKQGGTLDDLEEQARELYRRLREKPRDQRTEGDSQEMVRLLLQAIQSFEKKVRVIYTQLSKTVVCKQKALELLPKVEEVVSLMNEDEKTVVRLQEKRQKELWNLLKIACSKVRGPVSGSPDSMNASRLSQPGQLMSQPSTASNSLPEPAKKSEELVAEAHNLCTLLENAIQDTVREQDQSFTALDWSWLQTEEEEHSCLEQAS
T1 sequence (O15111 whole entry): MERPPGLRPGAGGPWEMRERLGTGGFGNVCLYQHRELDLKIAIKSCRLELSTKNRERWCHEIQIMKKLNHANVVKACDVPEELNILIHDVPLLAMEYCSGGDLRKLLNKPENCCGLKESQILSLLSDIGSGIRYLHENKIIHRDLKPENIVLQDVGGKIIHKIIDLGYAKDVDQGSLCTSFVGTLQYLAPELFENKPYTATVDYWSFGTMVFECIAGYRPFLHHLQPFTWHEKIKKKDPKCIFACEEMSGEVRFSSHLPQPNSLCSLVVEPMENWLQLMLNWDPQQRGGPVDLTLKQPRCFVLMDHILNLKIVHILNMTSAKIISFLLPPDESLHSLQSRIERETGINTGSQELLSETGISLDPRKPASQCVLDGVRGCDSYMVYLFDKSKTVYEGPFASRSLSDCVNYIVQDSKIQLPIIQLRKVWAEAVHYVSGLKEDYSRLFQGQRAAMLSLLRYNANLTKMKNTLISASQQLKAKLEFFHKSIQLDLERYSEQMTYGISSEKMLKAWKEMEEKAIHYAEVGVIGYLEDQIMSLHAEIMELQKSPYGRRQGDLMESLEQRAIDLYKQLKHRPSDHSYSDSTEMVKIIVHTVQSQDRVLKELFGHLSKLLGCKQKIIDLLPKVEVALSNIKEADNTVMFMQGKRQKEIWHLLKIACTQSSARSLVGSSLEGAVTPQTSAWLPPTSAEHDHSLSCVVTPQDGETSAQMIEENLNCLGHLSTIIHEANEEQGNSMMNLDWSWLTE
T1 sequence (Q9Y6K9 whole entry partner): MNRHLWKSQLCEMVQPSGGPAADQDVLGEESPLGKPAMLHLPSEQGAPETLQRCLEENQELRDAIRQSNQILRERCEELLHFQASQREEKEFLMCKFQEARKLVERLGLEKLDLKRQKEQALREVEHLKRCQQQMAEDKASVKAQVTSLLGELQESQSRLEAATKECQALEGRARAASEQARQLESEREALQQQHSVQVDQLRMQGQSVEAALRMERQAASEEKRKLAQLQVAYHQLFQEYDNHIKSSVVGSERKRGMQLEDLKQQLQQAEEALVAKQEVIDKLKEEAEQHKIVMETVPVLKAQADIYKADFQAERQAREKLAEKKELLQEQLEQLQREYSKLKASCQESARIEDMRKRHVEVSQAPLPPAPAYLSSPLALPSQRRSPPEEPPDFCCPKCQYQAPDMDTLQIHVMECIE
Description: The activity of the IκB kinase was determined using an ELISA comprising a biotinilated substrate peptide containing the amino acid sequence in the protein IκB of serines 32 to 36 and a specific poly- or monoclonal antibody (for example from New England Biolabs, Beverly, Mass., USA, cat.: 9240), which binds only to the phosphorylated form of the peptide IκB. This complex was immobilized on an antibody-binding plate (coated with protein A) and detected using a conjugate of a biotin-binding protein and HRP (for example streptavidine HRP). The activity could be quantified using a standard curve with substrate phosphopeptide.
To obtain the kinase complex, 10 ml of HeLa S3 cell extract S100 were diluted with 40 ml 50 mM HEPES, pH 7.5, adjusted to 40% ammonium sulfate and incubated on ice for 30 minutes. The precipitated pellet was dissolved in 5 ml SEC buffer (50 mM HEPES, pH 7.5, 1 mM DTT, 0.5 mM EDTA, 10 mM 2-glycerophosphate), centrifuged at 20,000×g for 15 minutes and filtered through a 0.22 μm filter. The sample was applied to a 320 ml Superose-6 FPLC column (Amersham Pharmacia Biotech AB, Uppsala, Sweden) which had been equilibrated with SEC buffer and was operated at a flow rate of 2 ml/min at 4° C. The fractions which corresponded to the elution time of the 670 kDa molecular weight standard were combined for activation. Activation was achieved by a 45-minute-incubation with 100 nM MEKK1Δ, 250 μM MgATP, 10 mM MgCl2, 5 mM dithiothreitol (DTT), 10 mM 2-glycerophosphate, 2.5 μM microcystin LR at 37° C. The activated enzyme was stored at −80° C.
The test substances, dissolved in DMSO (2 μl), were preincubated at 25° C. with 43 μl of activated enzyme (diluted 1:25 in reaction buffer 50 mM HEPES, pH 7.5, 10 mM MgCl2, 5 mM DTT, 10 mM β-glycerophosphate, 2.5 μM microcystin LR) for 30 minutes. 5 μl of substrate peptide (biotin-(CH2)6-DRHDSGLDSMKD-CONH2) (200 μM) were added, the mixture was incubated for one hour and the reaction was quenched using 150 μl of 50 mM HEPES, pH 7.5, 0.1% BSA, 50 mM EDTA, antibody [1:200]. 100 μl of the quenched reaction mixture or a standard phosphopeptide dilution series (biotin-(CH2)6-DRHDS[PO3]GLDSMKD-CONH2) were then transferred to a protein A plate (Pierce Chemical Co., Rockford, Ill., USA) and incubated with shaking for 2 hours.
After 3 washing steps with PBS, 100 μl of 0.5 μg/ml of streptavidin HRP (horseradish peroxidase) (diluted in 50mM HEPES/0.1% BSA) were added for 30 minutes. After 5 washing steps with PBS, 100 μl of TMB substrate (Kirkegaard & Perry Laboratories, Gaithersburg, Md., USA) were added and the development of color was stopped by addition of 100 μl of 0.18 M sulfuric acid. Absorption was measured at 450 nm. The standard curve was generated by […] according to a 4-parameter dose-activity relation. Using this standard curve, the enzyme activity or their inhibition by test substances was quantified.
Each substance was tested in duplicate. The mean of the blank (without enzyme) was subtracted from the means (enzyme with and without substances), and the inhibition in % was calculated. IC50 calculations were carried out using the software package GraFit 3.0.

[3] = biological target: T2, cAMP-dependent protein kinase (PKA) (Homo sapiens, UniProt P17612); test: PKA kinase inhibition (Upstate test kit); type: biochemical; conditions: substance concentration 100 μM; ATP 50 μM
T2 construct: purchased Upstate Biotechnologie
Description: as §1

[4] = biological target: T3, casein kinase II (CK II) (Homo sapiens, UniProt P68400); test: CK II kinase inhibition (Upstate test kit); type: biochemical; conditions: substance concentration 100 μM; ATP 50 μM
T3 construct: purchased Upstate Biotechnologie
T3 sequence (P68400 whole entry): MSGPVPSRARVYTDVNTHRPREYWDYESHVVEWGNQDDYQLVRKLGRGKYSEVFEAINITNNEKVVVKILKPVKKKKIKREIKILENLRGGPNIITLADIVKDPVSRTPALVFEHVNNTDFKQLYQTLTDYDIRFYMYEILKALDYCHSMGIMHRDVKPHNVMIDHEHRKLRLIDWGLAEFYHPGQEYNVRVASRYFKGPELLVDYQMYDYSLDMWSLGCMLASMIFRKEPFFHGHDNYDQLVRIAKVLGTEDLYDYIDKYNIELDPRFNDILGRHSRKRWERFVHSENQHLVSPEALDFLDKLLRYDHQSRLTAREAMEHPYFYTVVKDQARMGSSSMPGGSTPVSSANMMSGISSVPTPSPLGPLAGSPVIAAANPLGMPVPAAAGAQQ
Description: as §1

Structure (SMILES): Cc1c(-c2ccncc2)[nH]c2ccc(C(=O)N[C@@H](CSc3ccccc3)C(=O)O)cc12 [Example 5]
- PKC % inhibition [1]: 8%
- pIC50 [2]: 5.74
- inhibition at 100 µM [3]: 55%
- inhibition at 100 µM [4]: 27%

Structure (SMILES): Cc1c(-c2ccncc2)[nH]c2ccc(C(=O)N[C@@H](CCn3cccc3)C(N)=O)cc12 [Example 7, N-(1-Carbamoyl-3-pyrrol-1-ylpropyl)-3-methyl-2-pyridin-4-yl-1H-indole-5-carboxamide]
- pIC50 [2]: 5.52
- inhibition at 100 µM [4]: 18%

Structure (SMILES): CCN(C[C@H](NC(=O)c1ccc2[nH]c(-c3ccncc3)cc2c1)C(N)=O)c1ccccc1 [Example 9]
- PKC % inhibition [1]: 23%
- pIC50 [2]: 6.00
- inhibition at 100 µM [3]: 0%
- inhibition at 100 µM [4]: 0%

Structure (SMILES): Cc1c(-c2ccncc2)[nH]c2ccc(C(=O)N[C@@H](CSc3ccccc3)C(N)=O)cc12 [Example 6]
- PKC % inhibition [1]: 58%
- pIC50 [2]: 5.31
- inhibition at 100 µM [3]: 60%
- inhibition at 100 µM [4]: 39%

Structure (SMILES): NC(=O)[C@H](CSc1ccccc1)NC(=O)c1ccc2[nH]c(-c3ccncc3)cc2c1 (stereo in doubt) [Example 3, N-(1-carbamoyl-2-phenylsulfanylethyl)-2-pyridin-4-yl-1H-indole-5-carboxamide]
- PKC % inhibition [1]: 39%
- pIC50 [2]: 6.26
- inhibition at 100 µM [3]: 35%
- inhibition at 100 µM [4]: 37%

Structure (SMILES): O=C(N[C@@H](CSc1ccccc1)C(=O)O)c1ccc2[nH]c(-c3ccncc3)cc2c1 [Example 4]
- PKC % inhibition [1]: 33%
- pIC50 [2]: 6.30
- inhibition at 100 µM [3]: 42%
- inhibition at 100 µM [4]: 47%

Structure (SMILES): NC(=O)[C@H](CCc1ccccc1)NC(=O)c1ccc2[nH]c(-c3ccccc3)c(-c3ccccc3)c2c1 [Example 1, N-(1-Carbamoyl-3-phenylpropyl)-2,3-diphenyl-1H-indole-5-carboxamide]
- melting point: 120 to 125 °C
- pIC50 [2]: 4.49

Structure (SMILES): NC(=O)[C@H](CCc1ccccc1)NC(=O)c1ccc2[nH]c(-c3ccncc3)cc2c1 [Example 2]
- PKC % inhibition [1]: 15%
- pIC50 [2]: 6.21
- inhibition at 100 µM [3]: 24%
- inhibition at 100 µM [4]: 35%
